According to PMC12196235, “Enhancing the Pharmacological Properties of Triterpenes Through Acetylation: An Anticancer and Antioxidant Perspective” (Molecules, 2025):
Where two headings read alike, the source gives them in different places.

Tests used:
[1] = tested on: P-388 (murine lymphocytic leukemia); conditions: ref 49, cited from earlier work
PC-3 = experiment: Apoptosis assay (Cell Death Detection ELISA Plus), PC-3; type: cell-based, human; conditions: PC-3, 4 h incubation, enrichment of mono- and oligonucleosomes vs negative control
Description: (§1) The induction of apoptosis by tested compounds was determined with Cell Death Detection ELISA Plus from Roche Diagnostics GmbH (Mannheim, Germany).
(§2) Cell Death Detection ELISA Plus is an enzyme immunoassay for determining cytoplasmic histone-associated DNA fragments (mono- and […]) after induced cell death. Cells (10^4) were pipetted into wells of 96-well plates, and test compounds were added at final concentrations of 0.1, 1.0 and 10.0 µg × mL^−1. Cells incubated in the absence of test compounds served as negative controls. After 4 h of incubation, cells were harvested by centrifugation of the plates for 10 min at 200× g. Supernatants were removed carefully, and cell pellets were resuspended in 200 µL of cell lysis buffer and incubated for 30 min at room temperature. After centrifugation of the plates (10 min at 200× g), 20 µL of cell lysates was transferred in duplicate into wells of provided streptavidin-coated microplates. Then, 80 µL of the immunoreagent containing a mixture of anti-histone-biotin monoclonal antibody and anti-DNA-peroxidase monoclonal antibody was added to each well. The microplates were covered with a provided adhesive foil and incubated for 2 h at room temperature. Thereafter, the solution in the wells was removed by tapping the microplate. The wells were rinsed three times with incubation buffer, and 100 µL of substrate (2,2′-azino-bis [3-ethylbenzothiazoline-6-sulphonic acid], ABTS) was added to each well. After 10–20 min, 100 µL of ABTS stop solution was pipetted to each well, and the absorbance was read at 405 nm (test wavelength) and 490 nm (reference wavelength). The apoptotic index was calculated based on the enrichment of mono- and oligonucleosomes according to the following equation:apoptotic index = [{A405(sample) − A490(sample)}/{A405(negative control) − A490(negative control)}]

[2] = tested on: HPCC (human cervical carcinoma); conditions: ref 47; read-out: anticancer IC50 (HPCC); cited from earlier work
[3] = tested on: A-549 (human lung carcinoma); conditions: ref 47; read-out: anticancer IC50 (A-549); cited from earlier work
[4] = tested on: FTC-238 (human thyroid carcinoma); conditions: ref 47; read-out: anticancer IC50 (FTC-238); cited from earlier work
[5] = tested on: PC-3 (human prostate carcinoma); experiment: MTT assay, PC-3; type: cell-based
[6] = tested on: HeLa, KB, MCF-7, A-549, PC-3 and SKOV-3; experiment: MTT assay, summary over the cancer cell lines; type: cell-based, human; conditions: classification by IC50 (good ≤ 10 μM, moderate 10–30 μM, ref 83)
Summary of the method: (§3)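 MTT formazan read-out of viable cells after compound exposure at 37 °C. MCF-7 and A-549 grown in RPMI 1640, HeLa in DMEM, HDF normal fibroblasts in Fibroblast Basal Medium; each with 10% FBS, 1% L-glutamine and 1% penicillin/streptomycin.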

[7] = tested on: RPMI-8226 (human multiple myeloma); conditions: ref 47; read-out: anticancer IC50 (RPMI-8226); cited from earlier work
[8] = tested on: HT-29 (human colorectal adenocarcinoma); conditions: ref 47; read-out: anticancer IC50 (HT-29); cited from earlier work
[9] = tested on: SFV (Semliki Forest virus); design: method as in PMID 19839605; conditions: ref 43; read-out: antiviral IC50 (SFV); cited from earlier work
[10] = tested on: HDF (human dermal fibroblasts); experiment: MTT assay, normal HDF; type: cell-based; conditions: Homo sapiens, Fibroblast, read-out: IC50 (±SD), HDF
Summary of the method: as §3

SKOV-3 = experiment: Apoptosis assay (Cell Death Detection ELISA Plus), SKOV-3; type: cell-based, human
Description: as §1, §2

[11] = tested on: A-549 (human lung carcinoma); experiment: MTT assay, A-549; type: cell-based
Summary of the method: as §3

[12] = tested on: HeLa (human cervical epithelioid carcinoma); experiment: MTT assay, HeLa; type: cell-based
Summary of the method: as §3

[13] = tested on: Jurkat 1E.6 (human T cell leukemia); conditions: ref 47; read-out: anticancer IC50 (Jurkat 1E.6); cited from earlier work

In the case of `C=C(C)[C@@H]1CC[C@]2(CO)CC[C@]3(C)[C@H](CC[C@@H]4[C@@]5(C)CC[C@H](O)C(C)(C)[C@@H]5CC[C@]43C)[C@@H]12` [5a, betulin], the “anticancer IC50 (P-388)” value [1] is given as 5.5 µg/mL, the IC50 ([1]; read-out: anticancer IC50 (P-388)) is given as 12.4 µM and the “Apoptotic index (AI), PC-3” value (PC-3) is given as 5.82 (0.03). For the same compound, the IC50 [2] was 3.4 µM, the IC50 [3] was 7.4 µM and the IC50 [4] was 6.8 µM. For the same compound, the IC50 ([5]; Homo sapiens, MTT assay, PC-3, read-out: IC50 (±SD), PC-3) was 6.22 µM, the “Selectivity index (SI), PC-3” value ([5]; IC50 HDF / IC50 PC-3) was 2.54 and the “cytotoxic activity class” value [6] was “high or moderately high activity”. The IC50 [7] was 6.4 µM, the IC50 [8] was 4.3 µM and the IC50 [9] was 45.5 µM. The IC50 [10] was 15.8 µM, the mean apoptotic index (SKOV-3; 0.1 µg/mL, mean over SKOV-3 and PC-3) was 5.54 and the “Apoptotic index (AI), SKOV-3” value (SKOV-3; SKOV-3, 4 h incubation, enrichment of mono- and oligonucleosomes vs negative control) was 5.26 (0.03). For the same compound, the IC50 ([11]; Homo sapiens, A549, MTT assay, A-549, read-out: IC50 (±SD), A-549) was 19.6 µM, the “Selectivity index (SI), A-549” value ([11]; IC50 HDF / IC50 A-549) was 0.81 and the IC50 ([12]; Homo sapiens, MTT assay, HeLa, read-out: IC50 (±SD), HeLa) was 18.3 µM. The “Selectivity index (SI), HeLa” value ([12]; IC50 HDF / IC50 HeLa) was 0.86 and the IC50 [13] was 6.7 µM.
